SMILES strings stand for the structures.

This is an account of results in ChEMBL document CHEMBL3507680, “University of Dundee, Gates Library screen for HepG2 cell viability”.

The nature of this series: Human HepG2 cell viability assay in 384 well format. On the set-up: dose 125 nL, time 70.5 hour; cytotoxicity at 70.5 h: concentration not given beside the values. In kind it is toxicity, cell-based. The note with it: HepG2 cells, read-out: Inhibition.

In the case of `CC[C@@H](C)[C@@H](N)C(=O)Nc1cccc(-c2cnc(N(C)C)nc2)c1`, the cytotoxicity at 70.5 h was -4.42%. Turning to `O=C1CN(CC2CC2)Cc2nc(NCCc3ccccn3)sc21`, the cytotoxicity at 70.5 h came to 26.4%. With `CC(C)NC(=O)NCc1cc(-c2ccco2)n(CC(F)(F)F)n1`, the cytotoxicity at 70.5 h is -5.8%. On to `CN1CCCN(c2nccc(-c3c[nH]nc3-c3ccncc3)n2)CC1`, for which the cytotoxicity at 70.5 h is -3.42%. For `O=C(Nc1ccc(-c2cnc(NCCO)nc2)cc1)[C@@H]1CCCCN1`, the cytotoxicity at 70.5 h is -3.46%. With `CN(c1nccc(-c2cnc3sccn3c2=O)n1)C1CCCCC1`, the cytotoxicity at 70.5 h is -3.44%. For the molecule `O=c1c(-c2ccnc(N3CCCC[C@@H]3CO)n2)cnc2sccn12`, the cytotoxicity at 70.5 h is -4.35%. As for `CN1CCN(CC2CC2)C(=O)c2cnc(N3CCC(CO)CC3)nc21`, the cytotoxicity at 70.5 h was -4.14%.

With `O=c1[nH]c(-c2ccncc2)ncc1-c1ccnc(NC2CCCCC2)n1`, the cytotoxicity at 70.5 h is 18.2%. Consider `CC(C)[C@H](NS(C)(=O)=O)C(=O)NCc1cc(-c2ccccc2)n[nH]1`, for which the cytotoxicity at 70.5 h is -10.8%. As for `COc1cccc(OC)c1-c1ccnc2cc(CC(=O)NC3CC3)nn12`, the cytotoxicity at 70.5 h is -11%. On to `CCc1ccc(-c2ncc3c(n2)N(C)CCN(CCN(C)C)C3=O)cc1`, for which the cytotoxicity at 70.5 h is -5.02%.

As for `CC(C)NC(=O)N1CC(=O)c2sc(Nc3ccc(C#N)cc3)nc2C1`, the cytotoxicity at 70.5 h is -7.13%.

Turning to `COc1cccc(-c2ncc3c(n2)N(C)CCN(CCN(C)C)C3=O)c1`, the cytotoxicity at 70.5 h was -6.84%. For `Cc1cn2c(=O)c(-c3ccnc(N(C)C4CCCCC4)n3)cnc2s1` the value was -3.7%.

Consider `Cc1csc2ncc(-c3ccnc(N4CCCN(C)CC4)n3)c(=O)n12`, for which the cytotoxicity at 70.5 h is -0.0913%. For `CC(C)Nc1nc2c(s1)C(=O)CN(C(=O)NCCc1ccccc1)C2`, the cytotoxicity at 70.5 h was -4.98%. The value for `COc1ccccc1Nc1nc2c(s1)C(=O)CN(C(=O)CC(C)C)C2` was 2.87%; that for `O=c1c(-c2ccnc(NC3CCCCC3)n2)cnc2sc(Cl)cn12` was -5.61%; that for `CC(C)Nc1ncc(-c2csc(NC(=O)C[C@H]3COCCN3)n2)cn1` was -10.2%. `CNCC(=O)Nc1cccc(-c2cnc(NCCS(C)(=O)=O)nc2)c1`: the cytotoxicity at 70.5 h came out at 0.0271%. `CC(C)[C@H](NS(C)(=O)=O)C(=O)NCc1cc(-c2ccccc2)nn1C`: the cytotoxicity at 70.5 h came out at 7.09%. In the case of `CCNc1nc(-c2cccnc2)c(-c2ccnc(N3CCOCC3)n2)s1`, the cytotoxicity at 70.5 h was -10.7%. With `CC[C@H](C)[C@H](N)C(=O)N1CC(=O)c2sc(Nc3ccc(F)cc3)nc2C1`, the cytotoxicity at 70.5 h was 7.24%. Regarding `CS(=O)(=O)NCc1cc(-c2cc(F)cc(F)c2)nc(N2CC[C@H](O)C2)n1`, the cytotoxicity at 70.5 h was -10.5%. Turning to `O=c1[nH][nH]cc1-c1ccnc(NCCN2CCCC2)n1`, the cytotoxicity at 70.5 h amounted to 50.4%. In the case of `CN1CCN(CC2CC2)C(=O)c2cnc(N3CC[C@@H](O)C3)nc21`, the cytotoxicity at 70.5 h was 27.1%. Turning to `Nc1nccc(-c2c[nH]nc2C2CCCCC2)n1`, the cytotoxicity at 70.5 h stood at 47.1%.

With `Cc1c(C(C)NC2CCOCC2)cnn1-c1ccc(F)cc1F` (stereo not given), the cytotoxicity at 70.5 h was 9.85%. For `CCn1c(CC2CCN(C(=O)C3CC(C(C)C)=NO3)CC2)nn(C)c1=O` (stereo not given) the value was -6.72%; for `CCNc1ncc(C(=O)NCc2ccc3nsnc3c2)cn1`, 0.938%. With `CN(Cc1nc(-c2ccccc2)no1)Cc1cnc(N2CCOCC2)s1`, the cytotoxicity at 70.5 h is 1.48%. For `CCC(O)CNC(=O)c1cc(COc2ccc(OC)cc2Cl)[nH]n1` (stereo not given), the cytotoxicity at 70.5 h is -1.08%. Take `CSc1ncccc1C(=O)N1CCCC1c1ccc(C(=O)N(C)C)s1` (stereo not given): the cytotoxicity at 70.5 h is -15.4%.

On to `O=C(Cc1ccc(-c2ccccc2)cc1)N1CCOCC(O)C1` (stereo not given), for which the cytotoxicity at 70.5 h is -9.74%. On to `COc1cc(C(=O)NCc2cc(N3CCOCC3)ncn2)ccn1`, for which the cytotoxicity at 70.5 h stood at 20.4%. As to `COCCC1(CO)CCCN(C(=O)c2ccc(C(C)C)[nH]c2=O)C1` (stereo not given), the cytotoxicity at 70.5 h was found to be 11.1%. For `COc1ccc(-c2cn[nH]c2)cc1CNC1CCCC1`, the cytotoxicity at 70.5 h is -19.5%. Consider `Cn1ncc(N2CCC(CNC3CC(c4ccccc4)C3)CC2)cc1=O` (stereo not given), for which the cytotoxicity at 70.5 h was -5.35%. With `Cc1ccccc1N1CCN(C(=O)c2cnc(N(C)C)nc2C)C(C)C1` (stereo not given), the cytotoxicity at 70.5 h was -7.48%. On to `Nc1ncccc1CN1CCCn2nc(CCC(=O)NC3CC3)cc2C1`, for which the cytotoxicity at 70.5 h is -2.41%. For `CN(CCc1cn[nH]c1)C(=O)C1CC(=O)N(Cc2ccccn2)C1` (stereo not given) the value was 6.7%.

With `CCc1cn[nH]c1C1CCN(C(=O)c2cc(C(C)=O)c(C)[nH]c2=O)CC1`, the cytotoxicity at 70.5 h was -9.17%. On to `Cc1ccc(=O)n(CC(=O)N(C)Cc2csc(-c3cccs3)n2)n1`, for which the cytotoxicity at 70.5 h is -7.16%.

For `Cc1ccc2nc(C)c(C)c(C(=O)N3CCS(=O)(=O)CC3)c2c1`, the cytotoxicity at 70.5 h is -12.9%. Regarding `CC(C)n1cnnc1CN(C)Cc1ccc(CO)o1`, the cytotoxicity at 70.5 h was -22.8%. In the case of `NC(=O)c1ccc(-n2ccnc2-c2cccc(O)c2)cc1N1CCCC1`, the cytotoxicity at 70.5 h is -6.04%. For `N[C@H]1CN(C(=O)c2ccc(Cl)cc2F)C[C@@H]1C1CC1`, the cytotoxicity at 70.5 h was -4.7%. Take `CCc1nc(C)c(C(=O)N2C[C@@H](C(=O)O)[C@H](C3CC3)C2)s1`: the cytotoxicity at 70.5 h is -4.51%. The value for `CCOC(=O)c1n[nH]cc1CN1CCCC(N(C)Cc2ccccc2)C1` (stereo not given) was 2.53%; that for `CCN(Cc1ccncc1)C1CCCN(Cc2ccc(F)cc2Cl)C1` (stereo not given) was 1.69%. Take `c1c[nH]c(-c2cn(CCSc3cnn[nH]3)nn2)n1`: the cytotoxicity at 70.5 h is -11.9%. The value for `CCc1nc(N2CCCC(CCOC)(C(=O)O)C2)ncc1C` (stereo not given) was -4.01%; that for `Cc1cc(C)n(C2CCN(C(=O)c3cn4ccsc4n3)C2)n1` (stereo not given) was -7.56%.

For the molecule `Cc1cc(C2CCC2)nc(NCCC23CCCN2CCC3)n1`, the cytotoxicity at 70.5 h is -8.73%. The value for `O=C1CCC2(CCCN(C(=O)c3ccoc3)C2)CN1Cc1ccncc1` (stereo not given) was -16.8%; that for `O=C(c1ccnc(N2CCOC(C(F)(F)F)C2)c1)N1CCOCC1` (stereo not given) was -19.7%. The value for `CC(C)c1nnc2sc(CC3CN(Cc4ccccc4)CCO3)nn12` (stereo not given) was 6.69%. `CC(C)[C@H]1COC(=O)N1CC(=O)N(C)CCCn1cccn1`: the cytotoxicity at 70.5 h was -4.67%. In the case of `Cc1cc(-c2nn(C)c(Cl)c2CN2CCCCC(N)C2)no1` (stereo not given), the cytotoxicity at 70.5 h is -1.48%. As to `CN1CCN(C(=O)NCCc2ccc(F)cc2)[C@H]2CS(=O)(=O)C[C@H]21`, the cytotoxicity at 70.5 h was -2.69%.

As for `CN(Cc1csc(-c2ccccc2)n1)C(=O)CCn1ccccc1=O`, the cytotoxicity at 70.5 h is -0.921%. `CSCc1noc(CN2CC3(CCCC3)CC2=O)n1`: the cytotoxicity at 70.5 h is -7.21%. Consider `CCc1nc(N2CCCC(O)(CO)CC2)ncc1C` (stereo not given), for which the cytotoxicity at 70.5 h is -0.208%. The value for `CN1CCCN(C(=O)c2cnc(Cc3c(Cl)cccc3Cl)nc2O)CC1` was -3.04%; that for `CC1(C)CCN(Cc2ccccc2-c2nc(C(C)(C)C)cc(=O)[nH]2)C1` was -4.72%. As for `Cc1ccc(C(=O)N2CCC(=O)N(CC3CC3)C(C(C)C)C2)c(=O)[nH]1` (stereo not given), the cytotoxicity at 70.5 h is 4.74%. Turning to `CCN1CC2(CCN(C(=O)C(C)Oc3ccc(F)cc3F)CC2)OC1=O` (stereo not given), the cytotoxicity at 70.5 h was -1.13%. As for `Cc1cnc(NC(=O)c2cccc(CN(C)Cc3snnc3C)c2)s1`, the cytotoxicity at 70.5 h was -4.01%. For `CC(c1ccon1)N(C)C(=O)C1CCN(C2CCCCC2)CC1` (stereo not given), the cytotoxicity at 70.5 h was -1.12%. Take `Cc1ccccc1-n1cc(CN(C)C(=O)CC2C(=O)NCCN2C)cn1` (stereo not given): the cytotoxicity at 70.5 h is -2.44%. Consider `CN(CCCN1CCCCCC1)C(=O)c1ccccc1NCC(=O)O`, for which the cytotoxicity at 70.5 h is -12.7%. Take `O=C(CN1CCOC1=O)N1CC[C@@H](c2ccc3ccccc3c2)[C@H](O)C1`: the cytotoxicity at 70.5 h was -9.33%.

As to `Cc1ccc(CN(Cc2ccccn2)C(=O)CCC2CCCN(C)C2)s1` (stereo not given), the cytotoxicity at 70.5 h is 32.1%.

For `CC(C)(C)c1cc(CN2CCOCC(O)C2)n[nH]1` (stereo not given), the cytotoxicity at 70.5 h was found to be 2.49%. For the molecule `c1cc(CN2CCC(c3nnc4n3CCCCC4)CC2)c2c(c1)OCO2`, the cytotoxicity at 70.5 h is -5.9%. For `c1cncc(CN2CCCC(Nc3ncnc4c3CCNCC4)C2)c1` (stereo not given), the cytotoxicity at 70.5 h was -11.7%. As to `Cc1cc(N2C[C@H](C3CC3)[C@@H](N)C2)nc(N2CCCCC2)n1`, the cytotoxicity at 70.5 h is 3.53%. With `COc1ccc(CN2CCC3(CC2)C(C(=O)O)CC(=O)N3C)cc1Cl` (stereo not given), the cytotoxicity at 70.5 h was -3.23%.

With `C[C@@H]1CN(C(=O)Cn2ccc3ncccc3c2=O)C[C@H](C)O1`, the cytotoxicity at 70.5 h is -5.8%. As to `CCC[C@H]1CN(S(=O)(=O)c2cc(C)ccc2F)C[C@@H]1N`, the cytotoxicity at 70.5 h is -0.888%. For `Cc1nccc(N[C@H]2CN(CCS(C)(=O)=O)C[C@@H]2C2CC2)n1` the value was 18.1%; for `CN1CC(C(=O)N2CCN(c3cccc(Cl)c3)C(=O)C2)NC1=O` (stereo not given), -7.63%. For `COCCn1cnnc1Cn1ccnc1-c1ccsc1` the value was 1.35%. On to `COc1ccccc1-n1nc(C(C)C)nc1Cc1nnc(N)s1`, for which the cytotoxicity at 70.5 h was -12.4%. Take `COc1cc(-c2cccc3c2OC(CN)C3)ccc1O` (stereo not given): the cytotoxicity at 70.5 h worked out at 14.1%. For `CSCCCNc1nccc(-c2cc(C(=O)O)ccn2)n1` the value was -7.43%; for `COC(=O)N1C[C@H]2CC[C@@H]1CN(Cc1ccncc1)C2`, -14.2%. In the case of `O=C(O)C1(Oc2cccc(F)c2)CCN(C2CCOCC2)CC1`, the cytotoxicity at 70.5 h was -6.65%. `COc1cc(CN2CC(=O)N(c3ccc(C)cc3)CC2C)cc(OC)c1` (stereo not given): the cytotoxicity at 70.5 h is -12%.

Take `O=C(CCc1ccccc1)C1CCCN(Cc2cncn2C2CC2)C1` (stereo not given): the cytotoxicity at 70.5 h came to 2.12%. In the case of `CCCOCCN1CCc2[nH]c(-c3ccccc3)nc2C1`, the cytotoxicity at 70.5 h was determined as 11.7%. For `CC(C)(O)CCc1cccc(C(=O)NCCC2=CSC3=NCCCN23)c1` the value was -0.369%; for `Cc1cc(CN2CC[C@@H]3[C@@H](CCC(=O)N3CCc3c[nH]cn3)C2)oc1C`, 1.03%. Take `Cc1ccc(OC2(C(=O)O)CCN(C(=O)c3ccoc3C)CC2)cn1`: the cytotoxicity at 70.5 h is -0.44%.
